This note sets out measurements from patent US20100291236A1, “OSMIUM COMPOUNDS” (THE UNIVERSITY OF WARWICK, priority 2006, published 2010).

“Also recorded” adds a separate entry of the source. Read-outs that look alike come from different tables or passages of the source.

Data set [1] relates to human ovarian A2780 cancer cells. Briefly: Cytotoxicity towards A2780 cells, sulforhodamine B (SRB) assay. It counts as cell-based. On the procedure: (§1) Experimental: Cytotoxicity Towards A2780 and A549 Human Cancer Cells. After plating, human ovarian A2780 cancer cells were treated with Os^II complexes on day 3, and human lung A549 cancer cells on day 2, at concentrations ranging from 2 μM to 50 μM. Solutions of the Os^II complexes were made up in 0.125% DMSO to assist dissolution. Cells were exposed to the complexes for 24 h, washed, supplied with fresh medium, allowed to grow for three doubling times (72 h), and then the protein content measured (proportional to cell survival) using the sulforhodamine B (SRB) assay.
(§2) Cancer Cell Cytotoxicity. After plating, human ovarian A2780 cancer cells were treated with OsII complexes on day 3, and human lung A549 cancer cells on day 2, at concentrations ranging from 0.1 μM to 100 μM. Solutions of the OsII complexes were made up in 0.125% DMSO to assist dissolution. Cells were exposed to the complexes for 24 h, washed, supplied with fresh medium, allowed to grow for three doubling times (72 h), and then the protein content measured (proportional to cell survival) using the sulforhodamine B (SRB) assay.10

Data set [2] concerns human lung A549 cancer cells. Nature of the data set: Cytotoxicity towards A549 cells, sulforhodamine B (SRB) assay. In kind it is cell-based. On the procedure: as §1, §2
Data set [3] in a line: Hydrolysis (aquation) kinetics followed by 1H NMR. It counts as physicochemical. On the procedure: Hydrolysis. […] The rate of hydrolysis was determined by fitting plots of concentrations (determined by ^1H NMR peak integrals) versus time to a pseudo first-order equation using ORIGIN version 5.0 (Microcal Software Ltd.).
For the next data set, the system named is 9-ethyl guanine (9EtG). Nature of the data set: Reaction with nucleobase model 9-ethyl guanine, 1H NMR. In kind it is binding. Particulars: for +1 eq. 9-EtG (% adduct formation): pH* close to 7.4, 298 K; for % 9EtG nucleobase adduct: 1 mM complex, 1 mol equivalent 9EtG, D2O. As for the experimental part:
(§3) Since DNA is believed to be the main target for metal anticancer drugs, nucleobase binding reactions of compounds 3-6, with nucleobase models, 9-ethyl guanine (9EtG) and 9-ethyl adenine (9EtA), were investigated.
(§4) Solutions of 3-6 (1 mM) (present as an equilibrium between 3-6 and their respective aqua adducts as the major species) with 1 mol equivalent of 9EtG (Table 14) or 9EtA (Table 15) in D2O were prepared and ^1H NMR spectra were taken at different time intervals.
(§5) Interactions with Nucleobases. The reaction of compounds 8-12 with nucleobases typically involved addition of a solution containing 1 mol equiv of nucleobase in D2O, to an equilibrium solution of compounds 8-12 in D2O (>90% aqua). The pH* value of the sample was adjusted if necessary so as to remain close to 7.4 (physiological). ^1H NMR spectra of these solutions were recorded at 298 K after various time intervals.

The test system of another data set is 9-ethyl adenine (9EtA). Nature of the data set: Reaction with nucleobase model 9-ethyl adenine, 1H NMR. It counts as binding. Particulars: for +1 eq. 9-EtA (% adduct formation): pH* close to 7.4, 298 K; for % 9EtA nucleobase adduct: 1 mM complex, 1 mol equivalent 9EtA, D2O. As for the experimental part:
as §3, §4, §5

The nature of data set [4]: Acidity (pKa / pKa*) of coordinated water, 1H NMR pH* titration. The text has this: pKa* calculations. […] The chemical shifts of the arene ring protons were plotted against pH*. The pH* titration curves were fitted to the Henderson-Hasselbalch equation, with the assumption that the observed chemical shifts are weighted averages according to the populations of the protonated and deprotonated species.

Setting [5] is: Table 8, compounds 1-6, read-out: A2780 IC50.
[6] abbreviates: Table 8, compounds 1-6, read-out: A549 IC50.
The mark [7] stands for this setting: Table 19, read-out: IC50 (μM) in A2780.
Setting [8] is: Table 7, 24 h exposure, 72 h growth, 2-50 μM, read-out: IC50/μM A2780.
Where [9] appears, read: Table 7, 24 h exposure, 72 h growth, 2-50 μM, read-out: IC50/μM A549.
The mark [10] stands for this setting: 298 K, 5% MeOD-d4/95% D2O, pH* 2.
Setting [11] is: 288 K, 5% MeOD-d4/95% D2O, pH* 2.

With `O=C([O][Os][Cl])c1cccc(O)n1.c1ccc(-c2ccccc2)cc1` [Compound 2, [(η^6-bip)Os(6-OH-pico)Cl]], the IC50 in data set [1] (setting [5]) and in data set [2] (setting [6]) was over 50 µM each time.
On to `[NH2][Pt]([NH2])([Cl])[Cl]` [CDDP, cisplatin, reference compound], for which the IC50 in data set [1] (setting [7]) is about 0.5 µM.
`O=C(c1ccccn1)[N]([Os][Cl])c1ccccc1.c1ccc(-c2ccccc2)cc1` [Compound 10, [(η^6-bip)Os(N-Ph-picolinamide)Cl]PF6]: in data set [3] (Table 18, 288 K, 0.8 mM), the “Hydrolysis k/h^−1” value was “≧5.9 h^−1”. Besides, the “+1 eq. 9-EtG (% adduct formation)” value in the data set with 9-ethyl guanine (9EtG) (t = 0.17 h) and in the data set on 9-ethyl guanine (9EtG) (t = 24 h) was 73% in each case. Moreover, the “+1 eq. 9-EtA (% adduct formation)” value in the data set with 9-ethyl adenine (9EtA) (t = 0.17 h) and in the data set with 9-ethyl adenine (9EtA) (t = 24 h) was 0% throughout.
On to `Cc1ccc(C(C)C)cc1.NCCC(=O)[O][Ru][Cl]` [RF11, reference compound], for which the IC50 in data set [1] (setting [8]) is over 100 µM.
In the case of `Cc1ccc(C(C)C)cc1.O=C1c2cccc[n+]2[Os-]([Cl])[N]1c1ccccc1[N+](=O)[O-]` [Compound 11], in data set [3] (Table 18, 288 K, 0.8 mM), the “Hydrolysis k/h^−1” value is “≧5.9 h^−1”. For the same compound, the “+1 eq. 9-EtG (% adduct formation)” value in the data set on 9-ethyl guanine (9EtG) (t = 0.17 h) and with 9-ethyl guanine (9EtG) (t = 24 h) was 69% throughout. The “+1 eq. 9-EtA (% adduct formation)” value in the data set on 9-ethyl adenine (9EtA) (t = 0.17 h) and with 9-ethyl adenine (9EtA) (t = 24 h) was 0% each time.
For the compound `CC(=O)C=C(C)[O][Ru][Cl].Cc1ccc(C(C)C)cc1` [MMS6, reference compound], the IC50 in data set [1] (setting [8]) was 19 µM; in data set [2] (setting [9]), over 100 µM. For the same compound, the “pKa of water coordinated on hydrolysis (aqua adduct of complex)” value (“pKa of water coordinated on hydrolysis” for short) in data set [4] is listed as 9.4.
“[(η^6-p-cym)Os(N-2,4-difluoride-Ph-picolinamide)Cl]PF6 [Compound 8]”: the “Activity in A2780 cancer cell line” value in data set [1] is “cytotoxic; also recorded: active”. For the same compound, the IC50 was 8.2 µM in data set [1] (setting [7]) and 10 to 50 µM in data set [2] (Example 6, read-out: IC50 in human lung A549 cancer cell line). Moreover, the “Activity in A549 cancer cell line” value in data set [2] is recorded as “moderately cytotoxic”. Besides, the “Hydrolysis k/h^−1” value in data set [3] (Table 18, 288 K, 0.8 mM) was “≧5.9 h^−1”. Further, the “+1 eq. 9-EtG (% adduct formation)” value with 9-ethyl guanine (9EtG) (t = 0.17 h) and in the data set with 9-ethyl guanine (9EtG) (t = 24 h) was 56% each time. Also, the “+1 eq. 9-EtA (% adduct formation)” value in the data set on 9-ethyl adenine (9EtA) (t = 0.17 h) and in the data set on 9-ethyl adenine (9EtA) (t = 24 h) was 0% in each case.
Regarding `O=C([O][Os][Cl])c1cccc(Br)n1.c1ccc(-c2ccccc2)cc1` [Compound 1, [(η^6-bip)Os(6-Br-pico)Cl]], the IC50 in data set [1] (setting [5]) and in data set [2] (setting [6]) was over 50 µM throughout. Also, the “Hydrolysis k/h^−1” value in data set [3] (setting [10]) stood at 0.345 ± 0.0002 h⁻¹.
For the compound `Cc1cc(C)c(NC(=O)c2ccccn2)c(C)c1.Cc1ccc(C(C)C)cc1.F[P-](F)(F)(F)(F)F.[Cl][Os+]` [Compound 9, [(η^6-p-cym)Os(N-2,4,6-trimethyl-Ph-picolinamide)Cl]PF6], the “Activity in A2780 cancer cell line” value in data set [1] was “inactive”. In addition, the IC50 in data set [1] (setting [7]) is over 50 µM. Besides, the “Rate of hydrolysis” value in data set [3] is “very slowly”. In addition, in data set [3] (Table 18, 310 K, 0.8 mM), the “Hydrolysis k/h^−1” value turned out to be 0.16 ± 0.01 h⁻¹. The “+1 eq. 9-EtG (% adduct formation)” value in the data set with 9-ethyl guanine (9EtG) (t = 0.17 h) and in the data set on 9-ethyl guanine (9EtG) (t = 24 h) was 0% each time. The “+1 eq. 9-EtA (% adduct formation)” value in the data set on 9-ethyl adenine (9EtA) (t = 0.17 h) and in the data set with 9-ethyl adenine (9EtA) (t = 24 h) was 0% throughout.
In the case of `O=C(O)c1ccnc(C(=O)[O][Os][Cl])c1.c1ccc(-c2ccccc2)cc1` [Compound 5, [(η^6-bip)Os(4-CO2H-pico)Cl]], the IC50 in data set [1] (setting [5]) and in data set [2] (setting [6]) was over 50 µM in each case. Besides, the “pKa* of the aqua adduct” value in data set [4] turned out to be 6.61. The “Extent of hydrolysis at equilibrium (aqua adduct)” value in data set [3] (5% MeOD-d4/95% D2O, pH* 2) was determined as 100%. Moreover, the “Hydrolysis k/h^−1” value in data set [3] (setting [11]) was found to be 0.158 ± 0.011 h⁻¹; in data set [3] (setting [10]) it was 0.384 ± 0.004 h⁻¹. Moreover, the “% 9EtG nucleobase adduct” value with 9-ethyl guanine (9EtG) (t = 10) is on record as 0%; in the data set on 9-ethyl guanine (9EtG) (t = 24 h), 100%; in the data set with 9-ethyl guanine (9EtG) (t = 72 h), 100%. In addition, in the data set with 9-ethyl guanine (9EtG) (time not given), the “binding to 9EtG (nucleobase adduct formation)” value is given as 100%. In addition, the “% 9EtA nucleobase adduct” value in the data set with 9-ethyl adenine (9EtA) (t = 10) is listed as 0%; with 9-ethyl adenine (9EtA) (t = 24 h) it was 100%; in the data set on 9-ethyl adenine (9EtA) (t = 72 h), 100%. Moreover, in the data set with 9-ethyl adenine (9EtA) (time not given), the “binding to 9EtA (nucleobase adduct formation)” value is given as 100%.
With `O=C([O][Os][Cl])c1cc(Cl)ccn1.c1ccc(-c2ccccc2)cc1` [Compound 4, [(η^6-bip)Os(4-Cl-pico)Cl]], in data set [1], the “Activity in A2780 cancer cell line” value is on record as “toxic”. For the same compound, the results for the IC50 in data set [1] (setting [5]) and in data set [2] (setting [6]) were 4.8 µM and 10 to 50 µM, respectively. In addition, the “pKa* of the aqua adduct” value in data set [4] is reported as 6.30. Besides, the “Extent of hydrolysis at equilibrium (aqua adduct)” value in data set [3] (5% MeOD-d4/95% D2O, pH* 2) stood at 100%. In addition, the “Hydrolysis k/h^−1” value in data set [3] (setting [11]) came to 0.288 ± 0.001 h⁻¹; in data set [3] (setting [10]), 0.656 ± 0.032 h⁻¹. Moreover, the “% 9EtG nucleobase adduct” value turned out to be 0% in the data set with 9-ethyl guanine (9EtG) (t = 10), 59% with 9-ethyl guanine (9EtG) (t = 24 h) and 76% in the data set with 9-ethyl guanine (9EtG) (t = 72 h). Further, the “% 9EtA nucleobase adduct” value in the data set on 9-ethyl adenine (9EtA) (t = 10) was determined as 0%; in the data set with 9-ethyl adenine (9EtA) (t = 24 h), 62%; in the data set on 9-ethyl adenine (9EtA) (t = 72 h), 71%.
On to `C1=CCC2=C(C1)Cc1ccccc1C2.F[B-](F)(F)F.NCCN.[Cl][Os+]` [AFAP65, [(η^6-THA)Os(en)Cl]BF4], for which the IC50 amounted to 9.4 µM in data set [1] (setting [8]) and 6.4 µM in data set [2] (setting [9]). Also, in data set [4], the “pKa of water coordinated on hydrolysis” value came to 6.33.
As to “[(η^6-p-cym)Os(O2C6H3CH3NCH3)Cl] [AFAP57]”, the IC50 in data set [1] (setting [8]) is 40 µM; in data set [2] (setting [9]) it was over 100 µM. In data set [4], the “pKa of water coordinated on hydrolysis” value was found to be 8.31.
For `Cc1ccc(C(C)C)cc1.NCC(=O)[O][Ru][Cl]` [RF01, reference compound], in data set [1] (setting [8]), the IC50 is over 100 µM. In data set [4], the “pKa of water coordinated on hydrolysis” value was 8.65.
Take `CC(=O)C=C(C)[O][Os][Cl].Cc1ccc(C(C)C)cc1` [AFAP29]: the IC50 in data set [1] (setting [8]) and in data set [2] (setting [9]) was over 100 µM in each case. For the same compound, the “pKa of water coordinated on hydrolysis” value in data set [4] stood at 7.63.
Regarding `C1=CCC2=C(C1)Cc1ccccc1C2.F[P-](F)(F)(F)(F)F.NCCN.[Cl][Ru+]` [HC11, reference compound], the IC50 in data set [1] (setting [8]) and in data set [2] (setting [9]) was 0.5 µM each time. For the same compound, in data set [4], the “pKa of water coordinated on hydrolysis” value came to 8.01.
Regarding `CC(N)C(=O)[O][Ru][Cl].Cc1ccc(C(C)C)cc1` [RF02(a), reference compound], the IC50 in data set [1] (setting [8]) was over 100 µM.
On the same count and under the same terms, next, `O=C([O][Ru][Cl])C1CCCCN1.c1ccc(-c2ccccc2)cc1` [RF16, reference compound]: over 100 µM.
